# Laboratory results as given in article PMC12344197 (Bioactive Materials, 2025).
# Where a SMILES comes first, the peptide text is derived from it. The star is where a group is joined. Succinyl(20-O-(20S)-CPT) = CC[C@@]1(OC(=O)CCC(=O)*)C(=O)OCc2c1cc1n(c2=O)Cc2cc3ccccc3nc2-1; Biotin = O=C1N[C@H]2[C@H](CS[C@H]2CCCCC(=O)*)N1
# How the values were obtained:
# [1] = tested on: 4T1 cells; assay: CCK-8 assay; type: cell-based; settings: 20 μM, 4 h incubation, washed, n = 6; for cell viability, no laser: dark, further 24 h
# [2] = Zeta potential; type: physicochemical; settings: 10 μM in PBS pH 7.4
# [3] = tested on: Red blood cells (RBCs); assay: Hemolysis assay; type: cell-based, BALB/c mice; settings: mouse RBC suspension in PBS, 2 h, OD540; n = 3
zeta potential [2],SMILES,"cell viability, + Laser ([1]; 808 nm laser 5 min 1 W cm−2, further 24 h, absence of biotin)","cell viability, no laser [1]",hemolysis [3]
+23.9 mV,"CN1C(=CC=C2CCCC(C=CC3=[N+](C)c4ccccc4C3(C)C)=C2Cl)C(C)(C)c2ccccc21.[Cl-] [free IR775, IR775]",38.3%,above 80%,–
–,"CC[C@@]1(OC(=O)CCC(=O)NCCCC[C@H](NC(=O)[C@H](Cc2ccccc2)NC(=O)[C@@H](N)Cc2ccccc2)C(=O)N[C@@H](CCCCNC(=O)CCCC[C@@H]2SC[C@@H]3NC(=O)N[C@@H]32)C(=O)O)C(=O)OCc2c1cc1n(c2=O)Cc2cc3ccccc3nc2-1 [FFKK-CPT, Phe-Phe-Lys(CPT)-Lys(Biotin)] (H-FFK(Succinyl(20-O-(20S)-CPT))K(Biotin)-OH)",–,–,no significant hemolysis
–,"CC[C@@]1(O)C(=O)OCc2c1cc1n(c2=O)Cc2cc3ccccc3nc2-1 [Free CPT, camptothecin]",–,49.3%,–
